Measurements as given in US20150174273A1, “IMAGING AND THERAPEUTIC METHODS FOR TREATING PARATHYROID TUMORS” (EMORY UNIVERSITY, priority 2012, published 2015).

Columns and labels:
[1] = tested on: FRs on freshly excised, non-cultured human PT adenoma cells; experiment: 99mTc-EC20 uptake by PT adenoma cell slurry with or without cold folate block; type: cell-based; conditions: for 99mTc-EC20 uptake, not blocked: absence of cold folate; for 99mTc-EC20 uptake, blocked: pre-incubation with cold folate (200 μM)
Procedure: Some aliquots of cells were blocked by pre-incubation with cold folate (FA) (yellow bars).

[2] = in vivo; cited from earlier work
[3] = tested on: primary human parathyroid cells; experiment: 18F FACBC uptake assay; type: cell-based; conditions: preliminary experiments
Excerpt: BCH is L type transporter inhibitor (2-amino-2-norboranecarboxylic acid), MeAlB is an A type inhibitor (2-[methylamine]isobutric acid), ACS is a multiple amino acid transporter inhibitor (L-alanine, L-cystine, L-serine).
In certain embodiments, the disclosure contemplates methods of ^18F-FACBC Imaging. […] See McConathy et al., Appl Radiat Isot. 2003; 58(6):657-66, hereby incorporated by reference. Parathormone is a peptide hormone, and the bioactive conformation includes a long helical dimer containing leucine residues. […] It is contemplated that parathyroid cells concentrate Anti-^18F-FACBC, and thus Anti-^18F-FACBC can be used as an imaging probe for PET imaging.

Row | SMILES | 99mTc-EC20 uptake, not blocked ([1]; 20 μl PT adenoma cell slurry) [% dose/20 μl tissue prep] | 99mTc-EC20 uptake, blocked ([1]; 20 μl PT adenoma cell slurry) [% dose/20 μl tissue prep] | 99mTc-EC20 uptake, not blocked ([1]; 70 μl PT adenoma cell slurry) [% dose/70 μl tissue prep] | 99mTc-EC20 uptake, blocked ([1]; 70 μl PT adenoma cell slurry) [% dose/70 μl tissue prep] | pancreatic concentration [2] | renal excretion [2] | uptake of Anti-18F-FACBC by primary human parathyroid cells [3]
1 | [NH-][C@@H](CNC(=O)CC[C@@H](NC(=O)c1ccc(NCc2cnc3nc(N)[nH]c(=O)c3n2)cc1)C(=O)O)C(=O)[N-][C@@H](CC(=O)O)C(=O)[N-][C@@H](C[S-])C(=O)O.[O]=[Tc+4] [99mTc-EC20] | 3.4±0.4 | 1.9±0.2 | 10.9±0.9 | 5.7±0.3 |  |  | 
2 | NC1(C(=O)O)CC([18F])C1 (stereo not drawn) [Anti-^18F-FACBC, anti-1-amino-^18F-flurocyclobutane-1 carboxylic acid] |  |  |  |  | high pancreatic concentration | low renal excretion | significant specific uptake
